# How the values were obtained:
# Carboplatin = compound: C1CC(C1)(C(=O)[O-])C(=O)[O-].N.N.[Pt+2] [Carboplatin]; settings: max 10 µM
# Outline: (§1)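 Plates with 1536 wells received cancer cell lines in 7.5 μl of DMEM/F12 or RPMI containing 10% FBS. After 24 hours at 37°C and 5% CO2, cells were dosed for 72 hours with final DMSO typically 0.2%, and viability was read by CellTiter-Glo 2.0 luminescence scaled between blank-well and DMSO-well means. The single-agent IC50 was taken from a logistic fit of the dose responses made with a non-linear mixed effects model, that logistic curve having two parameters.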
# AZD5363 = compound: C1CN(CCC1(C(=O)N[C@@H](CCO)C2=CC=C(C=C2)Cl)N)C3=NC=NC4=C3C=CN4 [AZD5363]; settings: max 10 µM
# Outline: as §1
# AZD1775 = compound: C=CCn1c(=O)c2cnc(Nc3ccc(N4CCN(C)CC4)cc3)nc2n1-c1cccc(C(C)(C)O)n1 [AZD1775]; settings: max 3 µM
# Outline: as §1
# Trametinib = compound: CC(=O)Nc1cccc(-n2c(=O)n(C3CC3)c(=O)c3c(Nc4ccc(I)cc4F)n(C)c(=O)c(C)c32)c1 [Trametinib]; settings: max 1 µM
# Outline: as §1
# Paclitaxel = compound: CC(=O)O[C@H]1C(=O)[C@@]2(C)[C@H]([C@H](OC(=O)c3ccccc3)[C@]3(O)C[C@H](OC(=O)[C@H](O)[C@@H](NC(=O)c4ccccc4)c4ccccc4)C(C)=C1C3(C)C)[C@]1(OC(C)=O)CO[C@@H]1C[C@@H]2O [Paclitaxel]; settings: max 3 µM
# Outline: as §1
# Palbociclib = compound: CC(=O)c1c(C)c2cnc(Nc3ccc(N4CCNCC4)cn3)nc2n(C2CCCC2)c1=O [Palbociclib]; settings: max 10 µM
# Outline: as §1
# AZD1390 = compound: CC(C)n1c(=O)n(C)c2cnc3cc(F)c(-c4ccc(OCCCN5CCCCC5)nc4)cc3c21 [AZD1390]; settings: max 0.3 µM
# Outline: as §1
# Venetoclax = compound: CC1(C)CCC(CN2CCN(c3ccc(C(=O)NS(=O)(=O)c4ccc(NCC5CCOCC5)c([N+](=O)[O-])c4)c(Oc4cnc5[nH]ccc5c4)c3)CC2)=C(c2ccc(Cl)cc2)C1 [Venetoclax]; settings: max 1 µM
# Outline: as §1
# Dasatinib = compound: CC1=C(C(=CC=C1)Cl)NC(=O)C2=CN=C(S2)NC3=CC(=NC(=N3)C)N4CCN(CC4)CCO [Dasatinib]; settings: max 2 µM
# Outline: as §1
# AZD2811 = compound: CCN(CCO)CCCOc1ccc2c(Nc3cc(CC(=O)Nc4cccc(F)c4)[nH]n3)ncnc2c1 [AZD2811]; settings: max 1 µM
# Outline: as §1
# SN-38 = compound: CCc1c2c(nc3ccc(O)cc13)-c1cc3c(c(=O)n1C2)COC(=O)[C@]3(O)CC [SN-38]; settings: max 0.3 µM
# Outline: as §1
# AZD0156 = compound: CN(C)CCCOc1ccc(-c2ccc3ncc4c(c3c2)n(C2CCOCC2)c(=O)n4C)cn1 [AZD0156]; settings: max 3 µM
# Outline: as §1
# AZD4320 = compound: CN(CC[C@H](CSC1=CC=CC=C1)NC2=C(C=C(C=C2)S(=O)(=O)NC(=O)C3=CC=C(C=C3)N4CCC(CC4)[C@H](C5=CC=CC=C5C6=CC=C(C=C6)Cl)O)S(=O)(=O)C(F)(F)F)CCO [AZD4320]; settings: max 1 µM
# Outline: as §1
# Etoposide = compound: COc1cc([C@@H]2c3cc4c(cc3[C@@H](O[C@@H]3O[C@@H]5CO[C@@H](C)O[C@H]5[C@H](O)[C@H]3O)[C@H]3COC(=O)[C@H]23)OCO4)cc(OC)c1O [Etoposide]; settings: max 10 µM
# Outline: as §1
# Gefitinib = compound: COc1cc2ncnc(Nc3ccc(F)c(Cl)c3)c2cc1OCCCN1CCOCC1 [Gefitinib]; settings: max 10 µM
# Outline: as §1
# AZD5153 = compound: COc1nnc2ccc(N3CCC(c4ccc(OCCN5CCN(C)C(=O)[C@H]5C)cc4)CC3)nn12 [AZD5153]; settings: max 1 µM
# Outline: as §1
# Lapatinib = compound: CS(=O)(=O)CCNCc1ccc(-c2ccc3ncnc(Nc4ccc(OCc5cccc(F)c5)c(Cl)c4)c3c2)o1 [Lapatinib]; settings: max 10 µM
# Outline: as §1
# AZD8186 = compound: C[C@@H](Nc1cc(F)cc(F)c1)c1cc(C(=O)N(C)C)cc2c(=O)cc(N3CCOCC3)oc12 [AZD8186]
# Outline: as §1
# Crizotinib = compound: C[C@@H](Oc1cc(-c2cnn(C3CCNCC3)c2)cnc1N)c1c(Cl)ccc(F)c1Cl [Crizotinib]; settings: max 10 µM
# Outline: as §1
# Savolitinib = compound: C[C@@H](c1ccc2nccn2c1)n1nnc2ncc(-c3cnn(C)c3)nc21 [Savolitinib]; settings: max 1 µM
# Outline: as §1
# AZD6738 = compound: C[C@@H]1COCCN1C2=NC(=NC(=C2)C3(CC3)[S@](=N)(=O)C)C4=C5C=CNC5=NC=C4 [AZD6738]; settings: max 10 µM
# Outline: as §1
# AZD5991 = compound: Cc1c2c(nn1C)CSCc1cc(n(C)n1)CSc1cc(c3ccccc3c1)OCCCc1c(C(=O)O)n(C)c3c-2c(Cl)ccc13 [AZD5991]; settings: max 1 µM
# Outline: as §1
# AZD7648 = compound: Cc1cc2ncnn2cc1Nc1ncc2c(n1)n(C1CCOCC1)c(=O)n2C [AZD7648]; settings: max 10 µM
# Outline: as §1
# Taselisib = compound: Cc1nc(-c2cn3c(n2)-c2ccc(-c4cnn(C(C)(C)C(N)=O)c4)cc2OCC3)n(C(C)C)n1 [Taselisib]; settings: max 10 µM
# Outline: as §1
# Selumetinib = compound: Cn1cnc2c(F)c(Nc3ccc(Br)cc3Cl)c(C(=O)NOCCO)cc21 [Selumetinib]; settings: max 10 µM
# Outline: as §1
# SRA737 = compound: N#Cc1cnc(Nc2cc(NC[C@H]3CNCCO3)c(C(F)(F)F)cn2)cn1 [SRA737]; settings: max 10 µM
# Outline: as §1
# MK-2206 = compound: NC1(c2ccc(-c3nc4ccn5c(=O)[nH]nc5c4cc3-c3ccccc3)cc2)CCC1 [MK-2206]; settings: max 10 µM
# Outline: as §1
# Gemcitabine = compound: Nc1ccn([C@@H]2O[C@H](CO)[C@@H](O)C2(F)F)c(=O)n1 [Gemcitabine]; settings: max 0.3 µM
# Outline: as §1
# [1] = compound: O=C(Nc1ccc2[nH]nc(-c3ccncc3)c2c1)[C@@H]1CCN(CC(=O)N2CCN(c3ccc(-c4ncccn4)cc3)CC2)C1; settings: max 5 µM
# Outline: as §1
# Olaparib = compound: O=C(c1cc(Cc2n[nH]c(=O)c3ccccc23)ccc1F)N1CCN(C(=O)C2CC2)CC1 [Olaparib]; settings: max 10 µM
# Outline: as §1
# 5-Fluorouracil = compound: O=c1[nH]cc(F)c(=O)[nH]1 [5-Fluorouracil]; settings: max 20 µM
# Outline: as §1
# Capivasertib = compound: C1CN(CCC1(C(=O)N[C@@H](CCO)C2=CC=C(C=C2)Cl)N)C3=NC=NC4=C3C=CN4 [Capivasertib]; settings: max 10 µM
# Outline: as §1
# SG3199 = compound: CC1=CN2[C@@H](C1)C=NC3=CC(=C(C=C3C2=O)OC)OCCCCCOC4=C(C=C5C(=C4)N=C[C@@H]6CC(=CN6C5=O)C)OC [SG3199]; settings: max 0.001 µM
# Outline: as §1
# Alisertib = compound: COc1cc(Nc2ncc3c(n2)-c2ccc(Cl)cc2C(c2c(F)cccc2OC)=NC3)ccc1C(=O)O [Alisertib]; settings: max 10 µM
# Outline: as §1
# Prexasertib = compound: COc1cccc(OCCCN)c1-c1cc(Nc2cnc(C#N)cn2)n[nH]1 [Prexasertib]; settings: max 1 µM
# Outline: as §1
# Doxorubicin = compound: COc1cccc2c1C(=O)c1c(O)c3c(c(O)c1C2=O)C[C@@](O)(C(=O)CO)C[C@@H]3O[C@H]1C[C@H](N)[C@H](O)[C@H](C)O1 [Doxorubicin]; settings: max 1 µM
# Outline: as §1
Cell Line,"IC50, cell viability 72 h (Carboplatin) [µM]","IC50, cell viability 72 h (AZD5363) [µM]","IC50, cell viability 72 h (AZD1775) [µM]","IC50, cell viability 72 h (Trametinib) [µM]","IC50, cell viability 72 h (Paclitaxel) [µM]","IC50, cell viability 72 h (Palbociclib) [µM]","IC50, cell viability 72 h (AZD1390) [µM]","IC50, cell viability 72 h (Venetoclax) [µM]","IC50, cell viability 72 h (Dasatinib) [µM]","IC50, cell viability 72 h (AZD2811) [µM]","IC50, cell viability 72 h (SN-38) [µM]","IC50, cell viability 72 h (AZD0156) [µM]","IC50, cell viability 72 h (AZD4320) [µM]","IC50, cell viability 72 h (Etoposide) [µM]","IC50, cell viability 72 h (Gefitinib) [µM]","IC50, cell viability 72 h (AZD5153) [µM]","IC50, cell viability 72 h (Lapatinib) [µM]","IC50, cell viability 72 h (AZD8186; max 10 µM) [µM]","IC50, cell viability 72 h (Crizotinib) [µM]","IC50, cell viability 72 h (Savolitinib) [µM]","IC50, cell viability 72 h (AZD6738) [µM]","IC50, cell viability 72 h (AZD5991) [µM]","IC50, cell viability 72 h (AZD7648) [µM]","IC50, cell viability 72 h (Taselisib) [µM]","IC50, cell viability 72 h (Selumetinib) [µM]","IC50, cell viability 72 h (SRA737) [µM]","IC50, cell viability 72 h (MK-2206) [µM]","IC50, cell viability 72 h (Gemcitabine) [µM]","IC50, cell viability 72 h [1] [µM]","IC50, cell viability 72 h (Olaparib) [µM]","IC50, cell viability 72 h (5-Fluorouracil) [µM]","IC50, cell viability 72 h (Capivasertib) [µM]","IC50, cell viability 72 h (SG3199) [µM]","IC50, cell viability 72 h (Alisertib) [µM]","IC50, cell viability 72 h (Prexasertib) [µM]","IC50, cell viability 72 h (Doxorubicin) [µM]","IC50, cell viability 72 h (AZD8186; max 3 µM) [µM]"
NCI-H211 (Small Cell Lung Carcinoma),> 10,9.9,0.628,> 1,< 0.003,6.13,> 0.3,0.113,> 2,0.0195,0.00231,> 3,0.0233,0.342,> 10,0.0302,8.54,> 10,1.92,> 1,5.99,0.307,> 10,> 10,> 10,> 10,> 10,0.00872,> 5,3.58,> 20,,,,,,
RH-1 (Ewing's Sarcoma),,,0.0951,> 1,,> 10,> 0.3,> 1,> 2,0.0226,0.00435,> 3,0.83,,> 10,> 1,> 10,,2.25,> 1,2,0.55,> 10,6.26,> 10,,> 10,,,> 10,,> 10,> 0.001,0.039,0.0184,0.0561,> 3
SUIT-2 (Pancreatic Carcinoma),,,1.86,0.478,,> 10,> 0.3,> 1,> 2,> 1,0.0326,> 3,> 1,,> 10,> 1,> 10,,> 10,> 1,> 10,> 1,> 10,> 10,> 10,,> 10,,,> 10,,> 10,> 0.001,> 10,0.178,> 1,> 3
SW756 (Cervical Carcinoma),,,> 3,> 1,,> 10,> 0.3,> 1,> 2,> 1,0.0323,> 3,> 1,,> 10,> 1,> 10,,> 10,> 1,> 10,> 1,> 10,> 10,> 10,,> 10,,,> 10,,> 10,> 0.001,> 10,> 1,> 1,> 3
SW780 (Bladder Carcinoma),,,> 3,> 1,,> 10,> 0.3,> 1,> 2,> 1,0.247,> 3,> 1,,> 10,> 1,> 10,,> 10,> 1,> 10,> 1,> 10,> 10,> 10,,> 10,,,> 10,,> 10,> 0.001,> 10,> 1,> 1,> 3
TGBC24TKB (Biliary Tract Carcinoma),,,0.815,0.933,,> 10,> 0.3,> 1,> 2,0.923,> 0.3,> 3,> 1,,> 10,0.665,8.01,,9.9,> 1,7.4,> 1,> 10,0.561,> 10,,> 10,,,> 10,,> 10,> 0.001,1.86,0.0494,> 1,> 3

# Source: the supplement of paper PMC11061612
